pIC50: −log10 of the molar value. The source made the active and inactive calls. The calls are words filed in the database; no cut-off is given here.
Tests used:
[1] = Protein binding in mouse plasma assessed as unbound fraction at 30 mg/kg, po; type: ADME, organism-based
[2] = target: Poly [ADP-ribose] polymerase 1 (Homo sapiens, UniProt P09874); assay: Inhibition of N-terminal GST-tagged recombinant full length human PARP1 expressed in Baculovirus infected Sf9 cells using biotinylated substrate after 1 hr by chemiluminescence method
[3] = target: T1, Protein mono-ADP-ribosyltransferase TIPARP (Homo sapiens, UniProt Q7Z3E1); assay: Inhibition of N-terminal FLAG-tagged recombinant human PARP7 (400 to 657 residues) expressed in Baculovirus infected Sf9 cells using biotinylated substrate after 1 hr by chemiluminescence method
T1 sequence (Q7Z3E1 whole entry): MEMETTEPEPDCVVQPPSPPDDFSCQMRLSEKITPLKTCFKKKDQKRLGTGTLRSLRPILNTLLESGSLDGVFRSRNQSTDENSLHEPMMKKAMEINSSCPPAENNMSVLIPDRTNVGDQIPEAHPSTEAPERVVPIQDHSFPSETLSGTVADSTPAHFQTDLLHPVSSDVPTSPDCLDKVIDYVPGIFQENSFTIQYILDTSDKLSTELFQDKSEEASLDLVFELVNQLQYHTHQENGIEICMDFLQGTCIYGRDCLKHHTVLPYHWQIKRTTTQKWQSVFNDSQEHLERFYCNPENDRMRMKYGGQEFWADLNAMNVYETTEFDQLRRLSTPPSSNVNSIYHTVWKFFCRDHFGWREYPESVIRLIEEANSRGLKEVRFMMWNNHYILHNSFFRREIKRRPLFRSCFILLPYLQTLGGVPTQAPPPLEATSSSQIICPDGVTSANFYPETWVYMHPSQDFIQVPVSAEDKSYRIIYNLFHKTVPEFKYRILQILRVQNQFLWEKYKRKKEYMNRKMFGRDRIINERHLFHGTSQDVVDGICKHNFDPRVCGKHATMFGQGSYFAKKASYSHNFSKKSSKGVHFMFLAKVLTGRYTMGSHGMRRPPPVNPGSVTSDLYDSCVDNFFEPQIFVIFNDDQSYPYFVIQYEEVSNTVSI

[4] = Half-life in mouse; type: ADME, organism-based; details: in vivo
[5] = Time at which free-drug concentration exceeds in vitro cellular EC50 for inhibition of tankyrase 1/2 in human DLD1 cells assessed as increase in axin2 accumulation in mouse xenografted with human DLD1 at 30 mg/kg, po administered via gavage; type: organism-based; details: in vivo
[6] = target: T2, Protein mono-ADP-ribosyltransferase PARP8 (Homo sapiens, UniProt Q8N3A8); assay: Inhibition of human recombinant PARP8 by chemiluminescence method
T2 sequence (Q8N3A8 whole entry): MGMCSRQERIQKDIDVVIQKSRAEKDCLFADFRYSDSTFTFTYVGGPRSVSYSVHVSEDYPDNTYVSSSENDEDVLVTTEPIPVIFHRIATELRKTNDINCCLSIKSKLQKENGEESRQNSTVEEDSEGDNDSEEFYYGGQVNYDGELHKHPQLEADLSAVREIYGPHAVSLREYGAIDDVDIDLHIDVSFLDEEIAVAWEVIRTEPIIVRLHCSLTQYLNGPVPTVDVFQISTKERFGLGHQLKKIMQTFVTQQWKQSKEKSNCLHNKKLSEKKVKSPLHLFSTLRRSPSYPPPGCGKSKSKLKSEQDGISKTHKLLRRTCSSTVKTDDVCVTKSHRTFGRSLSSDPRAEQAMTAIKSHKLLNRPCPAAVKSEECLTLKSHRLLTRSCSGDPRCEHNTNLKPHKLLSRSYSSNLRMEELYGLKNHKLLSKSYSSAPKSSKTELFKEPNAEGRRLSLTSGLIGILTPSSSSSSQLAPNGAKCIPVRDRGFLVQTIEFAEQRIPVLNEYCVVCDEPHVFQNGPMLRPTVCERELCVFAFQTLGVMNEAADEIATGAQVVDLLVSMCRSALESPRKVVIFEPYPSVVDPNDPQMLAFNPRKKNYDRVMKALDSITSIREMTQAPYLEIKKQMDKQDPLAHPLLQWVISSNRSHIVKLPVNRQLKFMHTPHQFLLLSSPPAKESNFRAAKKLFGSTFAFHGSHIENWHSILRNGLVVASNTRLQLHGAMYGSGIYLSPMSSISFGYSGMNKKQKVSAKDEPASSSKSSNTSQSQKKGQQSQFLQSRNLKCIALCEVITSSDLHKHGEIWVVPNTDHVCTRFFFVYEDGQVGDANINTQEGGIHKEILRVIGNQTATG

[7] = Time at which free-drug concentration exceeds in vitro cellular EC50 for inhibition of tankyrase 1/2 in human DLD1 cells assessed as increase in axin2 accumulation in mouse xenografted with human DLD1 at 90 mg/kg, po administered via gavage; type: organism-based; details: in vivo
Mus musculus [8] = assay: Ex vivo inhibition of tankyrase 1/2 in human DLD1 cells xenografted in immunodeficient athymic nude mouse assessed as increase in axin-2 level in tumor lysates at 10 to 90 mg/kg, po administered via gavage by luminex based bead assay; type: functional, organism-based; details: Neoplasm, Lysate, TDE = time-dependent effect
Mus musculus [9] = assay: Ex vivo inhibition of tankyrase 1/2 in human DLD1 cells xenografted in immunodeficient athymic nude mouse assessed as increase in tankyrase level in tumor lysates at 10 mg/kg, po administered via gavage measured after 12 hrs by luminex based bead assay; type: functional, organism-based; details: Neoplasm, Lysate
[10] = Time at which free-drug concentration exceeds in vitro cellular EC50 for inhibition of tankyrase 1/2 in human DLD1 cells assessed as increase in axin2 accumulation in mouse at 30 mg/kg, po; type: organism-based; details: in vivo
[11] = Apparent permeability across apical to basolateral side in human Caco2 cells at 1 uM after 2 hrs by LC-MS/MS analysis; type: ADME, cell-based; details: Caco-2

Sequence of Poly [ADP-ribose] polymerase 1 (P09874 whole entry, the tested form may be a part): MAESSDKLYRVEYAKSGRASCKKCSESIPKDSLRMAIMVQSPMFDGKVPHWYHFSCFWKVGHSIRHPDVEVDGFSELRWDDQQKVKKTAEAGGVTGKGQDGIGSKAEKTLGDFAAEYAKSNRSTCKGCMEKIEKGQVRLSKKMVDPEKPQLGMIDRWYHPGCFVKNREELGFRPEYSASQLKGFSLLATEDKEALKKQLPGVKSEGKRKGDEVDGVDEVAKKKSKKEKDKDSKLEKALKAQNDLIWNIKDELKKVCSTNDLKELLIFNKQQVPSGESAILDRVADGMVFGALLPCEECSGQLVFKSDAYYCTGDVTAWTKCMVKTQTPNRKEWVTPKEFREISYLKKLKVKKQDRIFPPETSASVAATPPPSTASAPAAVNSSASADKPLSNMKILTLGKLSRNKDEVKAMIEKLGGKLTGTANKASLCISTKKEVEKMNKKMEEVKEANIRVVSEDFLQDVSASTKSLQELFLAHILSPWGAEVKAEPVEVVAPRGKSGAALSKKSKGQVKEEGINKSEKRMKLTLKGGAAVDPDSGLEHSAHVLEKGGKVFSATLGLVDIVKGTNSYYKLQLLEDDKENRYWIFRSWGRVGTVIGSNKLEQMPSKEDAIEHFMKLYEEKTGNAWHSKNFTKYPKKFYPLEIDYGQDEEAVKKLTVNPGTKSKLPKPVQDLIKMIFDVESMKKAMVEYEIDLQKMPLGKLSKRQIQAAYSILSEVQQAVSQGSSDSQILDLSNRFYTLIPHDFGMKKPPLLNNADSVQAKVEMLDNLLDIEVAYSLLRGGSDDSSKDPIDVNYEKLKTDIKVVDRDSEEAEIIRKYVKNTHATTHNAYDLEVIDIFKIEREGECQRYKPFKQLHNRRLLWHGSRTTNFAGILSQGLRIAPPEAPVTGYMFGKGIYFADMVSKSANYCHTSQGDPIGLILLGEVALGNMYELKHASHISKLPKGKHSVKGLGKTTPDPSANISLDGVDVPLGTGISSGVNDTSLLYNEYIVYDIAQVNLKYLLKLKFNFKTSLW

For `CC(C)(O)c1ccc(-c2nc3c(F)cc(F)cc3c(=O)[nH]2)cc1`, the fraction unbound [1] was 0.086, the pIC50 [2] was 6.15 and the pIC50 [3] was under 5.00. For the same molecule, the half-life [4] was 1.4 h, the “T>fEC50” value [5] was “>= 12 hr” and the pIC50 [6] was under 5.00. The “T>fEC50” value [7] was “>= 12 hr”, the inhibition (Mus musculus [8]) was “Tde” and the inhibition (Mus musculus [9]) was “Active”. For the same molecule, the “T>fEC50” value [10] was “>= 20 hr” and the Papp A→B at 2 h, 1 µM [11] was 40 ×10⁻⁶ cm/s.
